{"source": "patent US11759444B2", "about": "“Methods for cancer and immunotherapy using prodrugs of glutamine analogs” (The Johns Hopkins University, priority 2015, dated 2023)", "key": {"[1]": {"assay": "In vitro plasma stability, mouse plasma", "conditions": "Table 2; prodrug 10 μM, 60 min incubation at 37° C.; values read as % prodrug remaining"}, "[2]": {"assay": "In vitro plasma stability, monkey plasma", "conditions": "for PLASMA STABILITY Monkey: Table 2, prodrug 10 μM, 60 min incubation at 37° C., values read as % prodrug remaining"}, "[3]": {"assay": "In vitro plasma stability, human plasma", "conditions": "for PLASMA STABILITY Human: Table 2, prodrug 10 μM, 60 min incubation at 37° C., values read as % prodrug remaining"}, "[4]": {"assay": "Chemical stability of DON esters and prodrugs", "format": "physicochemical"}, "[5]": {"conditions": "cited from earlier work"}, "EL4 lymphoma": {"system": "EL4 lymphoma", "assay": "EL4 mouse lymphoma model", "format": "in vivo", "conditions": "monotherapy"}, "[6]": {"assay": "Brain and plasma pharmacokinetics in mice, oral", "format": "in vivo, C57BL/6 mice", "conditions": "0.8 mg/kg DON equivalent", "experimental": "All pharmacokinetic studies in mice were conducted according to protocol (#M013M113) approved by the Animal Care and Use Committee at Johns Hopkins University. C57BL/6 mice between 25 and 30 g were obtained from Harlan, and maintained on a 12 hour light-dark cycle with ad libitum access to food and water. To evaluate the brain and plasma pharmacokinetics of DON and its prodrug 5c, 8-12 week old C57BL/6 were administered DON (1; 0.8 mg/kg, p.o. in phosphate-buffered saline) and its prodrug 5c (at 0.8 mg/kg equivalent DON (1), p.o. in phosphate-buffered saline with 5% EtOH and 5% Tween-80). The mice were sacrificed by pentobarbital injection at 10, 30 and 90 minutes post drug administration, and blood was collected via cardiac puncture and placed into iced EDTA coated BD microtainers. […]\nWe have previously published a highly sensitive method for analysis of DON in biological matrices (Alt, et al., 2015). […] The mean predicted […] for back calculated concentrations of the standards and QC's for all analytes were within the range of 85 to 115%, except for the lowest concentration which was within the range of 80 to 120% with an overall accuracy and precision of 6.7% and 6.6% respectively.\nMean concentration-time data was used for pharmacokinetic analysis. […] Area under the curve (AUC) was calculated by log-linear trapezoidal rule to the end of sample collection (AUClast)."}, "B16 melanoma": {"system": "B16 melanoma", "assay": "B16 melanoma mouse model", "format": "in vivo"}, "TILs": {"system": "TILs", "assay": "CD8/Treg ratio in the tumor and hypoxia in the TILs", "conditions": "in vivo"}, "tumor cells": {"system": "tumor cells", "assay": "Oxygen consumption and lactate production of tumor cells", "format": "cell-based"}, "U87 human glioma cells": {"system": "U87 human glioma cells", "assay": "U87 flank xenograft mouse model of GBM", "format": "in vivo", "conditions": "0.8 mg/kg, i.p.; for GBM tumor growth: q.d. days 1-6", "experimental": "All mouse efficacy studies were conducted according to protocol #M013M69 approved by the Animal Care and Use Committee at Johns Hopkins University. Female athymic (RH_Foxn1nu mice) mice between 25 and 30 g were obtained (Harlan Sprague Dawley Inc, Indianapolis, Ind.), and maintained on a 12 hour light-dark cycle with ad libitum access to food and water. U87 human glioma cells were injected s.c. (5×10^6 cells in […] of PBS) in four separate locations on the flanks of each mouse. When tumors grew to a mean volume of around 200 mm^3, mice were randomized into either vehicle (HEPES-buffered saline, i.p.) or DON (1; 0.8 mg/kg, i.p.). In one cohort, mice were administered a single dose of the appropriate solution two hours after which glutamine levels were quantified in the tumor as described previously.^49 In brief, tumors were harvested, snap frozen, and homogenized in liquid N2 then subjected to metabolite extraction using methanol and DI water. Quantification was performed using Agilent 6520 Quadrupole-Time-of-Flight (Q-TOF) mass spectrometer with Agilent 1290 HPLC and using Agilent Mass Hunter and Agilent Qualitative and Quantitative Analysis Software packages. Glutamine content was averaged by group for each individual tumor (n=3-4/group), depicted as relative intensity, and analyzed by one-tailed t test. In a second cohort, efficacy experiments were conducted. Mice were injected once daily for six days; tumor volumes were measured using digital calipers and calculated according to the formula: [volume=(largest tumor dimension)×(smallest tumor dimension)×0.52] at 2, 4, and 6 days after the onset of treatment. Each individual tumor (n=8-10/group) was normalized to its pretreatment volume, averaged and analyzed by repeated measures two-way analysis of variance (ANOVA). If significant, a Bonferroni post hoc test was subsequently applied. Significance was defined as p<0.05."}, "[7]": {"assay": "In vitro liver microsomal stability, pig"}, "[8]": {"assay": "In vitro liver microsomal stability, human"}, "[9]": {"assay": "Plasma and CSF pharmacokinetics in swine, i.v. infusion", "format": "in vivo, Göttingen×Yucutan miniature swine", "conditions": "60 min post-administration"}}, "note": "“Also recorded” adds a separate entry of the source.", "data": [{"smiles": "CC(C)OC(=O)[C@H](CCC(=O)C=[N+]=[N-])NC(=O)[C@@H](N)Cc1cc2ccccc2[nH]1", "note": "[Compound 38]", "values": [{"measurement": "PLASMA STABILITY Mouse", "setting": "[1]", "result": 0, "unit": "%"}, {"measurement": "PLASMA STABILITY Monkey", "setting": "[2]", "result": 10, "unit": "%"}, {"measurement": "PLASMA STABILITY Human", "setting": "[3]", "result": 30, "unit": "%"}]}, {"smiles": "CC(C)OC(=O)[C@@H]1CCC(C=[N+]=[N-])=N1", "note": "[Compound 9b]", "values": [{"measurement": "chemical stability", "setting": "[4]", "result": "chemically stable even at acidic pH"}]}, {"smiles": "[N-]=[N+]=CC(=O)CC[C@H](N)C(=O)O", "note": "[DON, 6-diazo-5-oxo-L-norleucine]", "values": [{"measurement": "clinical toxicity", "setting": "[5]; human, in vivo", "result": "dose limiting toxicities, many of which were GI-related"}, {"measurement": "regression or stable disease in patients", "setting": "[5]; late stage adult patients, children with hematological malignancies or solid tumors", "result": "> 50", "unit": "%"}, {"measurement": "lymphoma tumor growth", "setting": "EL4 lymphoma", "result": "markedly inhibit lymphoma growth"}, {"measurement": "AUC0-t of DON in brain", "setting": "[6]", "result": 0.57, "unit": "nmol·h/g"}, {"measurement": "tumor infiltrating regulatory T cells (Foxp3+)", "setting": "B16 melanoma; B16 melanoma", "result": "inhibiting tumor infiltrating regulatory T cells"}, {"measurement": "melanoma tumor growth", "setting": "B16 melanoma; monotherapy", "result": "modest effect"}, {"measurement": "CD8/Treg ratio in the tumor", "setting": "TILs", "result": "improved the CD8/Treg ratio"}, {"measurement": "hypoxia in the TILs", "setting": "TILs", "result": "reduces hypoxia in the TILs"}, {"measurement": "lactate production of tumor cells", "setting": "tumor cells", "result": "reduces"}, {"measurement": "oxygen consumption of tumor cells", "setting": "tumor cells", "result": "reduces"}, {"measurement": "glutamine metabolism in flank GBM tumor (endogenous glutamine accumulation)", "setting": "U87 human glioma cells; 2 hours post-administration", "result": "inhibited glutamine metabolism"}, {"measurement": "reduction in tumor volume", "setting": "U87 human glioma cells; q.d.", "result": "> 50", "unit": "%"}, {"measurement": "weight loss", "setting": "U87 human glioma cells; q.d.", "result": "12±4.1", "unit": "%"}, {"measurement": "GBM tumor growth", "setting": "U87 human glioma cells", "result": "halted tumor growth, but also effectively induced tumor regression"}, {"measurement": "GBM tumor growth", "setting": "U87 human glioma cells; listed as 1", "result": "dramatic reduction in tumor size"}, {"measurement": "signs of toxicity", "setting": "U87 human glioma cells; q.d., all mice receiving DON", "result": "hunching, ptosis, and lethargy"}]}, {"smiles": "CC(C)OC(=O)[C@H](CCC(=O)C=[N+]=[N-])NC(=O)[C@@H](N)Cc1c[nH]c2ccccc12", "note": "[Compound 38a]", "values": [{"measurement": "liver microsomal stability, pig", "setting": "[7]", "result": "moderate-high stability"}, {"measurement": "liver microsomal stability, human", "setting": "[8]", "result": "moderate-high stability"}]}, {"smiles": "CCOC(=O)[C@H](CCC(=O)C=[N+]=[N-])NC(=O)[C@@H](N)Cc1cc2ccccc2[nH]1", "note": "[Compound 34]", "values": [{"measurement": "PLASMA STABILITY Mouse", "setting": "[1]", "result": 0, "unit": "%"}, {"measurement": "PLASMA STABILITY Monkey", "setting": "[2]", "result": 4, "unit": "%"}, {"measurement": "PLASMA STABILITY Human", "setting": "[3]", "result": 12, "unit": "%"}]}, {"smiles": "CCOC(=O)C(N)CCC(=O)C=[N+]=[N-]", "note": "(stereo not drawn) [Compound 2a]", "values": [{"measurement": "chemical stability", "setting": "[4]", "result": "unstable"}]}, {"smiles": "CCOC(=O)[C@H](CCC(=O)C=[N+]=[N-])NC(=O)OC(C)OC(=O)C(C)(C)C", "note": "(stereo partly drawn) [Compound 5b]", "values": [{"measurement": "stability in monkey plasma", "setting": "[2]", "result": "stable"}, {"measurement": "stability in human plasma", "setting": "[3]", "result": "stable"}]}, {"smiles": "CCOC(=O)[C@H](CCC(=O)C=[N+]=[N-])NC(=O)OC(C)OC(=O)C(C)(C)C", "note": "(stereo partly drawn) [Compound 32]", "values": [{"measurement": "PLASMA STABILITY Mouse", "setting": "[1]", "result": 0, "unit": "%"}, {"measurement": "PLASMA STABILITY Monkey", "setting": "[2]", "result": 75, "unit": "%"}, {"measurement": "PLASMA STABILITY Human", "setting": "[3]", "result": 88, "unit": "%"}]}, {"smiles": "CC(C)OC(=O)[C@H](CCC(=O)C=[N+]=[N-])NC(=O)OC(OC(=O)C(C)(C)C)c1ccccc1", "note": "(stereo partly drawn) [Compound 47]", "values": [{"measurement": "CSF delivery of DON", "setting": "[9]", "result": "substantially higher amounts of DON; also recorded: enhanced CSF delivery of DON"}, {"measurement": "CSF-to-plasma ratio of DON", "setting": "[9]", "result": "increased CSF-to-plasma ratios; also recorded: enhanced CSF:plasma ratio of DON"}]}, {"smiles": "CC(=O)N[C@@H](Cc1c[nH]c2ccccc12)C(=O)N[C@@H](CCC(=O)C=[N+]=[N-])C(=O)OC(C)C", "note": "[Compound 60a]", "values": [{"measurement": "liver microsomal stability, pig", "setting": "[7]", "result": "moderate-high stability"}, {"measurement": "liver microsomal stability, human", "setting": "[8]", "result": "moderate-high stability"}]}, {"smiles": "CC(C)C[C@H](N)C(=O)N[C@@H](CCC(=O)C=[N+]=[N-])C(=O)OC(C)C", "note": "[Compound 9]", "values": [{"measurement": "PLASMA STABILITY Mouse", "setting": "[1]", "result": 0, "unit": "%"}, {"measurement": "PLASMA STABILITY Monkey", "setting": "[2]", "result": 1, "unit": "%"}, {"measurement": "liver microsomal stability, pig", "setting": "[7]", "result": "moderate-high stability"}, {"measurement": "liver microsomal stability, human", "setting": "[8]", "result": "moderate-high stability"}, {"measurement": "PLASMA STABILITY Human", "setting": "[3]", "result": 1, "unit": "%"}]}, {"smiles": "CC(C)OC(=O)[C@H](CCC(=O)C=[N+]=[N-])NC(=O)OCOC(=O)C(C)(C)C", "note": "[Compound 42]", "values": [{"measurement": "PLASMA STABILITY Mouse", "setting": "[1]", "result": 0, "unit": "%"}, {"measurement": "PLASMA STABILITY Monkey", "setting": "[2]", "result": 0, "unit": "%"}, {"measurement": "PLASMA STABILITY Human", "setting": "[3]", "result": 9, "unit": "%"}]}, {"smiles": "Cc1oc(=O)oc1COC(=O)N[C@@H](CCC(=O)C=[N+]=[N-])C(=O)OC(C)C", "note": "[Compound 13]", "values": [{"measurement": "PLASMA STABILITY Mouse", "setting": "[1]", "result": 0, "unit": "%"}, {"measurement": "PLASMA STABILITY Monkey", "setting": "[2]", "result": 0, "unit": "%"}, {"measurement": "PLASMA STABILITY Human", "setting": "[3]", "result": 0, "unit": "%"}]}, {"smiles": "CC(C)OC(=O)C(N)CCC(=O)C=[N+]=[N-]", "note": "(stereo not drawn) [Compound 2b]", "values": [{"measurement": "chemical stability", "setting": "[4]", "result": "unstable"}]}, {"smiles": "CCOC(=O)[C@H](CCC(=O)C=[N+]=[N-])NC(=O)OCc1oc(=O)oc1C", "note": "[Compound 36]", "values": [{"measurement": "PLASMA STABILITY Mouse", "setting": "[1]", "result": 0, "unit": "%"}, {"measurement": "PLASMA STABILITY Monkey", "setting": "[2]", "result": 0, "unit": "%"}, {"measurement": "PLASMA STABILITY Human", "setting": "[3]", "result": 0, "unit": "%"}]}, {"smiles": "CCOC(=O)[C@@H]1CCC(C=[N+]=[N-])=N1", "note": "[Compound 9a]", "values": [{"measurement": "chemical stability", "setting": "[4]", "result": "chemically stable even at acidic pH"}]}]}
